In patent US20240246946A1, “MODULATORS OF TREX1” (Constellation Pharmaceuticals, Inc., priority 2021, published 2024):

Columns and labels:
full length mouse TREX1 = target: T1, full length mouse TREX1 (Mus musculus, UniProt Q91XB0); assay: mTREX1 Biochemical Assay (fluorescence, dsDNA substrate degradation); details: biochemical, read-out: mTREX1 IC50
T1 construct: N-terminally His-Tev tagged full length mouse TREX1; made in house; host or cells: E. coli
T1 sequence (Q91XB0 1-314): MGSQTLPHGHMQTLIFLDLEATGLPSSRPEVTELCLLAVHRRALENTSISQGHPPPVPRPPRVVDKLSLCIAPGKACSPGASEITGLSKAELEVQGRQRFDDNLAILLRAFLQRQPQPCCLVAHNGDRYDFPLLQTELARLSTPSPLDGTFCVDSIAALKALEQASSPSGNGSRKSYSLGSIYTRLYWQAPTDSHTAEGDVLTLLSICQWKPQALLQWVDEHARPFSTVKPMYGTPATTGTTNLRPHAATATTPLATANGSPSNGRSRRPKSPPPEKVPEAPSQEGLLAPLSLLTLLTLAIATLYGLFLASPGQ
Method: (§1) Degradation of the dsDNA liberates free fluorophore to produce a fluorescent signal. Specifically, 7.5 μL of N-terminally His-Tev tagged full length mouse TREX1 (expressed in E. coli and purified in house) in reaction buffer (50 mM Tris, 150 mM NaCl, 2 mM DTT, 0.1 mg/mL BSA, 0.01% (w/v) Tween-20, 5 mM MgCl2, pH 7.4) was added to a 384-well Black ProxiPlate Plus (PerkinElmer) which already contained compound (150 nL) at varying concentrations as a 10 point dose-response in DMSO. The plate was incubated at 25° C. for 4 hours. Reactions were initiated by adding 7.5 μL of dsDNA substrate (Strand A: 5′ TEX615/GCT AGG CAG 3′; Strand B: 5′ CTG CCT AGC/IAbRQSp (Integrated DNA Technologies)) in reaction buffer. Final concentrations were 6 pM TREX1, 60 nM dsDNA substrate in reaction buffer with 1.0% DMSO (v/v). After 18 hours at 25° C., reactions were quenched by the addition of 2 μL of 500 mM EDTA.

full length human TREX1 = target: T2, full length human TREX1 (Homo sapiens, UniProt Q9NSU2); assay: hTREX1 Biochemical Assay (fluorescence, dsDNA substrate degradation); details: biochemical, read-out: hTREX1 IC50
T2 construct: N-terminally His-Tev tagged full length human TREX1; made in house; host or cells: E. coli
T2 sequence (Q9NSU2 1-314): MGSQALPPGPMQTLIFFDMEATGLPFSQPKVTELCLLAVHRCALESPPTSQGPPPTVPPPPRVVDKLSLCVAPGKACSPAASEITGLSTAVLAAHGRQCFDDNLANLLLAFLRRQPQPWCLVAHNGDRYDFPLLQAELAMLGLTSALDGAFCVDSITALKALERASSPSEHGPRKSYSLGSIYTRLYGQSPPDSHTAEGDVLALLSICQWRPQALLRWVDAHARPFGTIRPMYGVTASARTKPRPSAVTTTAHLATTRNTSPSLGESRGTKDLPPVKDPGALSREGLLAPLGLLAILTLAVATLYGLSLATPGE
Method: as §1, with “length human” for “length mouse”, “were 4” for “were 6”

Structure (SMILES) | IC50 (full length mouse TREX1) | IC50 (full length human TREX1)
CC(c1nc(C(=O)Nc2cnoc2)c(O)c(=O)n1C)C(c1cnn(C)c1)c1cc(C(F)(F)F)ccc1C#N (single isomer, unassigned) [Example 29 D2E1] | > 10 nM | > 10 nM
Cc1nn(C)cc1C(c1cc(F)ccc1Cl)C(C)c1nc(C(=O)Nc2cnoc2)c(O)c(=O)n1C (single isomer, unassigned) [Example 62 D1E1] | > 10 nM | > 10 nM
CC(c1nc(C(=O)Nc2cnoc2)c(O)c(=O)n1C)C(c1cnn(C)c1)c1c(C#N)cccc1C#N (single isomer, unassigned) [Example 19 D2E2] | > 10 nM | > 10 nM
CC(c1nc(C(=O)Nc2cnoc2)c(O)c(=O)n1C)C(c1cnn(C)c1)c1ccncc1C#N (single isomer, unassigned) [Example 8 D2E1] | > 10 nM | > 10 nM
Cc1cn(C)nc1C(c1ccccc1C#N)C(C)c1nc(C(=O)Nc2cnoc2)c(O)c(=O)n1C (single isomer, unassigned) [Example 64 D2E2] | > 10 nM | > 10 nM
COCCn1cc(C(c2ccccc2C#N)C(C)c2nc(C(=O)Nc3cnoc3)c(O)c(=O)n2C)c(C)n1 (single isomer, unassigned) [Example 71 D2E2] | > 10 nM | > 10 nM
CC(c1nc(C(=O)Nc2cnoc2)c(O)c(=O)n1C)C(c1cnn(C)c1)c1cc(F)ccc1C#N (single isomer, unassigned) [Example 14 D1E1] | > 10 nM | > 10 nM
CC(=O)N(C)c1nn(C)cc1C(c1ccccc1C#N)C(C)c1nc(C(=O)Nc2cnoc2)c(O)c(=O)n1C (single isomer, unassigned) [Example 153 D1E1] | > 10 nM | > 10 nM
CC(c1nc(C(=O)Nc2cnoc2)c(O)c(=O)n1C)C(c1cnn(CC2CC2)c1)c1ccccc1C#N (single isomer, unassigned) [Example 23 D2E2] | > 10 nM | > 10 nM
Cc1nn(C)cc1C(c1ccc(F)cc1C#N)C(C)c1nc(C(=O)Nc2cnoc2)c(O)c(=O)n1C (single isomer, unassigned) [Example 56 D2E1] | > 10 nM | 1 to 10 nM
COCCn1cc(C(c2ccccc2C#N)C(C)c2nc(C(=O)Nc3cnoc3)c(O)c(=O)n2C)c(C)n1 (single isomer, unassigned) [Example 71 D2E1] | > 10 nM | > 10 nM
CC(c1nc(C(=O)Nc2cnoc2)c(O)c(=O)n1C)C(c1ccccc1C#N)c1c(C#N)cnn1C (single isomer, unassigned) [Example 52 D2E2] | > 10 nM | > 10 nM
Cc1nn(C)cc1C(c1ccccc1C#N)C(c1nc(C(=O)Nc2cnoc2)c(O)c(=O)n1C)C(F)(F)F (single isomer, unassigned) [Example 41 D2E1] | > 10 nM | 1 to 10 nM
COCCCn1cc(C(c2ccccc2C#N)C(C)c2nc(C(=O)Nc3cnoc3)c(O)c(=O)n2C)cn1 (single isomer, unassigned) [Example 24 D2E2] | > 10 nM | > 10 nM
Cc1cnc(C(c2cc(F)ccc2C#N)C(C)c2nc(C(=O)Nc3cnoc3)c(O)c(=O)n2C)cn1 (single isomer, unassigned) [Example 115 D2E1] | > 10 nM | > 10 nM
CC(c1nc(C(=O)Nc2cnoc2)c(O)c(=O)n1C)C(c1cnn(C)c1)c1c(C#N)cccc1C#N (single isomer, unassigned) [Example 19 D1E1] | > 10 nM | > 10 nM
CC(c1nc(C(=O)Nc2cnoc2)c(O)c(=O)n1C)C(c1cnn(CC(C)(C)O)c1)c1ccccc1C#N (single isomer, unassigned) [Example 36 D1E2] | > 10 nM | > 10 nM
CC(c1nc(C(=O)Nc2cnoc2)c(O)c(=O)n1C)C(c1cnn(C)c1)c1c(C#N)cccc1C#N (single isomer, unassigned) [Example 19 D2E1] | > 10 nM | > 10 nM
Cc1ncc(C(c2ccccc2Cl)C(C)c2nc(C(=O)Nc3cnoc3)c(O)c(=O)n2C)cn1 (single isomer, unassigned) [Example 44 D2E1] | > 10 nM | > 10 nM
Cc1nn(C)cc1C(c1cc(F)ccc1Cl)C(C)c1nc(C(=O)Nc2cnoc2)c(O)c(=O)n1C (single isomer, unassigned) [Example 62 D2E1] | > 10 nM | > 10 nM
Cc1nn(C)cc1C(c1ccccc1C#N)C(c1nc(C(=O)Nc2cnoc2)c(O)c(=O)n1C)C(F)(F)F (single isomer, unassigned) [Example 41 D1E1] | > 10 nM | > 10 nM

The next lines start with the values.

IC50 (full length mouse TREX1) | IC50 (full length human TREX1) | Structure (SMILES)
1 to 10 nM | 1 to 10 nM | Cc1ccn(C(c2ccccc2Cl)C(C)c2nc(C(=O)Nc3cnoc3)c(O)c(=O)n2C)n1 (single isomer, unassigned) [Example 49 D1E1]
> 10 nM | > 10 nM | CC(c1nc(C(=O)Nc2cnoc2)c(O)c(=O)n1C)C(c1cnn(CCN2CCOCC2)c1)c1ccccc1C#N (single isomer, unassigned) [Example 20 D2E2]
> 10 nM | > 10 nM | CC(c1nc(C(=O)Nc2cnoc2)c(O)c(=O)n1C)C(c1ncn(C)n1)c1ccccc1C#N (single isomer, unassigned) [Example 51 D1E1]
> 10 nM | > 10 nM | CC(c1nc(C(=O)Nc2cnoc2)c(O)c(=O)n1C)C(c1cnn(CCN2CCN(C)CC2)c1)c1ccccc1C#N (single isomer, unassigned) [Example 32 D2E2]
> 10 nM | > 10 nM | CC(c1nc(C(=O)Nc2cnoc2)c(O)c(=O)n1C)C(c1cnn(CC2CC2)c1)c1ccccc1C#N (single isomer, unassigned) [Example 23 D2E1]
> 10 nM | > 10 nM | Cc1cnc(C)c(C(c2ccccc2Cl)C(C)c2nc(C(=O)Nc3cnoc3)c(O)c(=O)n2C)n1 (single isomer, unassigned) [Example 120 D2E1]
> 10 nM | > 10 nM | CC(c1nc(C(=O)Nc2cnoc2)c(O)c(=O)n1C)C(c1cnn(C)c1)c1cc(F)c(F)cc1C#N (single isomer, unassigned) [Example 25 D1E2]
> 10 nM | > 10 nM | CC(c1nc(C(=O)Nc2cnoc2)c(O)c(=O)n1C)C(c1cnn(C)c1)c1cc(F)ccc1Cl (single isomer, unassigned) [Example 61 D1E2]
> 10 nM | > 10 nM | CC(c1nc(C(=O)Nc2cnoc2)c(O)c(=O)n1C)C(c1cnn(C2COC2)c1)c1ccccc1C#N (single isomer, unassigned) [Example 106 D2E2]
> 10 nM | > 10 nM | CC(c1nc(C(=O)Nc2cnoc2)c(O)c(=O)n1C)C(c1cnn(CC(F)(F)F)c1)c1ccccc1C#N (single isomer, unassigned) [Example 22 D2E2]
> 10 nM | > 10 nM | Cc1cnc(C(c2ccccc2Cl)C(C)c2nc(C(=O)Nc3cnoc3)c(O)c(=O)n2C)cn1 (single isomer, unassigned) [Example 116 D2E2]
> 10 nM | > 10 nM | Cc1cc(C(c2cc(F)ccc2Cl)C(C)c2nc(C(=O)Nc3cnoc3)c(O)c(=O)n2C)n(C)n1 (single isomer, unassigned) [Example 113 D2E2]
> 10 nM | > 10 nM | Cc1c(C(c2ccccc2C#N)C(C)c2nc(C(=O)Nc3cnoc3)c(O)c(=O)n2C)cnn1C (single isomer, unassigned) [Example 4 D2E1]
> 10 nM | > 10 nM | Cc1cncc(C(c2ccccc2C#N)C(C)c2nc(C(=O)Nc3cnoc3)c(O)c(=O)n2C)n1 (single isomer, unassigned) [Example 53 D2E2]
